Tests used:
[1] = tested on: guard cells (stomatal aperture); assay: Stomatal closure in abaxial epidermal peels of transformed V. faba leaves; format: cell-based, Vicia faba; details: for change in half aperture of stomata, closure: 1 h, illuminated
Method: (§1) Analysis of AAPK mutants for stomatal aperture changes and anion channel activation. V. faba leaves were biolistically transformed with the pGFP, pAAPK-GFP, or pAAPK(K43A)-GFP constructs. The V. faba leaves were bombarded with gold particles (Bio-Rad) coated with one of the DNA constructs. Bombardment was via a particle delivery system 1000/He (Bio-Rad) as described. (J. Marc et al., 1998, Plant Cell 10:1927).
(§2) Abaxial epidermal peels were isolated and the transformed guard cells were assayed for ABA-mediated prevention of stomatal opening and for stomatal closure stimulated by ABA, CO2 or darkness. Conditions were as in Assman, S., and Baskin, T. (1998) J. Exp. Bot. 49:163 except that the incubation solution was 10 mM MES, 30 mM KCl, pH=6.1, with or without 50 μM {±} cis,trans-ABA. For closure experiments, the transformed leaves were illuminated with 0.20 mmol m^−2 s^−1 white light for 2.5 h to open the stomata. The abaxial epidermal peels were placed in incubation solution and treated with either darkness, 25 μM {±} cis,trans-ABA or with 700 ppm CO2 for 1 h.

[2] = tested on: slow anion channels; assay: Whole-cell patch-clamp of guard cell protoplasts, anion channel activation; format: cell-based, Vicia faba
Method: Anion channel activation was measured in guard cell protoplasts. Whole-cell patch-clamp experiments were performed according to established methods. Pipette solution contained 100 mM KCl, 50 mM tetramethylammonium, 2 mM MgCl, 6.7 mM EGTA-(Tris)2, 3.35 mM CaCl2, 10 mM HEPES, pH=7.1 (Tris) and 5 mM Mg-ATP. Bath solution contained 40 mM CaCl2, 2 mM MgCl and 10 mM MES-Tris pH5.6. Osmolalities were adjusted with sorbitol to 500 mosmol/kg (in the pipette) or 470 mosmol/kg (in the bath). Protein kinase inhibitor K-252a (Calbiochem) was prepared as a stock solution at 2 mM in dimethyl sulfoxide (DMSO).

[3] = tested on: guard cells (stomatal aperture); assay: ABA-mediated prevention of stomatal opening in abaxial epidermal peels of transformed V. faba leaves; format: cell-based, Vicia faba; details: ABA 50 μM, illuminated
Method: as §1, §2

[4] = tested on: AAPK; assay: Kinase activity of immunoprecipitated GFP fusion proteins with histone III-S as substrate; format: biochemical, Vicia faba; details: cells transfected with pAAPK-GFP; protoplasts treated with ABA prior to isolation of the proteins
Excerpt: Analysis of AAPK mutants and hybrid expression DNA constructs for ABA-activated protein kinase activity. 1.5×10^7 V. faba guard cell protoplasts were transfected with either the vector, pGFP, or the constructs, pAAPK-GFP or pAAPK(K43A)-GFP by polyethylene glycol (PEG)-mediated DNA transfer. After uptake and expression, protoplasts were lysed and recombinant protein was immunoprecipitated with anti-GFP peptide antibodies (Clontech) and protein A-Sepharose CL-4B (Amersham Pharmacia Biotech). Immunoprecipitated proteins were assayed for kinase activity using histone III-S (Sigma) as substrate.

[5] = tested on: native AAPK; assay: Native AAPK activity; format: biochemical, Vicia faba
Method: Isolation and Identification of ABA-Activated Protein Kinase (AAPK). Guard cell protoplasts (2×10^6; 99.6% pure) were prepared from Vicia faba. Protoplasts were treated with either darkness, ABA or elevated CO2 concentrations prior to protein isolation. Protoplast proteins were extracted and subjected to 2-dimensional gel electrophoresis. Separation was via 12% SDS-polyacrylamide gel electrophoresis (SDS-PAGE). Kinase autophosphorylation activity of subsequently renatured proteins was detected by established methods.

[6] = AAPK(K43A)-GFP transformed guard cells, ABA 25 μM or CO2 700 ppm
[7] = AAPK(K43A)-GFP, untransformed guard cells, ABA 25 μM or CO2 700 ppm

## O=C=O [CO2]
[1]; [6]
  change in half aperture of stomata, closure: −2.23 ± 0.44 (36) micrometers
[1]; [7]
  change in half aperture of stomata, closure: −2.31 ± 0.46 (36) micrometers

## CC1=CC(=O)CC(C)(C)C1(O)/C=C/C(C)=C\C(=O)O (racemic) [ABA, abscisic acid]
[1]; [6]
  change in half aperture of stomata, closure: −0.36 ± 0.26 (56) micrometers
[1]; [7]
  change in half aperture of stomata, closure: −2.55 ± 0.21 (56) micrometers
[1]; AAPK-GFP column, untransformed guard cells, ABA 25 μM
  change in half aperture of stomata, closure: −2.58 ± 0.24 (36) micrometers
[1]; AAPK-GFP transformed guard cells, ABA 25 μM
  change in half aperture of stomata, closure: −2.59 ± 0.30 (36) micrometers
[1]; GFP column, untransformed guard cells, ABA 25 μM
  change in half aperture of stomata, closure: −2.54 ± 0.35 (36) micrometers
[1]; GFP transformed guard cells, ABA 25 μM
  change in half aperture of stomata, closure: −2.52 ± 0.29 (36) micrometers
[2]; V. faba guard cells
  effect on slow anion channels: activated
[2]; whole-cell configuration
  effect on anion current magnitude: increased
[3]; AAPK(K43A)-GFP transformed guard cells
  change in half aperture of stomata, opening: 0.42 ± 0.17 (46) micrometers
[3]; AAPK(K43A)-GFP, untransformed guard cells
  change in half aperture of stomata, opening: 0.44 ± 0.15 (46) micrometers
[3]; AAPK-GFP column, untransformed guard cells
  change in half aperture of stomata, opening: 0.41 ± 0.28 (36) micrometers
[3]; AAPK-GFP transformed guard cells
  change in half aperture of stomata, opening: 0.43 ± 0.22 (36) micrometers
[3]; GFP column, untransformed guard cells
  change in half aperture of stomata, opening: 0.45 ± 0.27 (36) micrometers
[3]; GFP transformed guard cells
  change in half aperture of stomata, opening: 0.42 ± 0.22 (36) micrometers
[4]
  histone phosphorylation activity of immunoprecipitate after ABA treatment of protoplasts: significantly enhanced

## COC(=O)[C@@]1(O)C[C@H]2O[C@]1(C)n1c3ccccc3c3c4c(c5c6ccccc6n2c5c31)C(=O)NC4 [K-252a]
[1]; kinase inhibitor, untransformed cells
  effect on ABA-induced stomatal closure: inhibits
[2]; untransformed cells
  effect on ABA regulation of anion channels: inhibits
[5]
  effect on native AAPK activity: inhibits
